Data from the supplement of paper PMC4977894.
± gives the standard deviation of the averaged measurements.

Tests used:
[1] = test system: Homo sapiens (human subject panel, olfactory perception); experiment: perceived odor familiarity rating (rating 0-100); higher = more familiar
Summary of the method: (§1)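 Fifty-five healthy human subjects aged 18–50 took part, and the six lowest performers were excluded. Each molecule was diluted in paraffin oil at high and low concentrations, and 1 mL was sniffed in randomized order over ten visits of 100 stimuli each. Subjects who reported smelling a stimulus rated it on a computerized slider that started at 50 and had to be moved, with positions converted to a 0–100 scale. The familiarity, intensity and pleasantness values are averages across subjects.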

[2] = test system: Homo sapiens (human subject panel, olfactory perception); experiment: perceived odor pleasantness rating (rating 0-100); higher = more pleasant
Summary of the method: as §1

[3] = test system: Homo sapiens (human subject panel, olfactory perception); experiment: perceived odor intensity rating (rating 0-100); higher = stronger perceived smell
Summary of the method: as §1

[4] = odor dilution in paraffin oil: 1/10
[5] = odor dilution in paraffin oil: 1/1,000
[6] = odor dilution in paraffin oil: 1/100,000

Row | Structure (SMILES) | perceived odor familiarity rating [1, 4] | perceived odor familiarity rating [1, 5] | perceived odor pleasantness rating [2, 4] | perceived odor pleasantness rating [2, 5] | perceived odor intensity rating [3, 4] | perceived odor intensity rating [3, 5] | perceived odor familiarity rating [1, 6] | perceived odor pleasantness rating [2, 6] | perceived odor intensity rating [3, 6]
1 | CC(=O)c1ccc2ccccc2c1 [Methyl beta-naphthyl ketone] | 58 ± 30 | 62.6 ± 27 | 54.4 ± 30 | 60.7 ± 25 | 78.8 ± 16 | 63.8 ± 26 |  |  | 
2 | CCCC(=O)OC [Methyl butyrate] |  | 48.2 ± 29 |  | 32.9 ± 31 |  | 79.2 ± 19 | 45.1 ± 32 | 27.8 ± 25 | 42.8 ± 30
3 | CCCCCCCC(=O)OC [Methyl caprylate] |  | 46.9 ± 32 |  | 68.5 ± 23 |  | 47.9 ± 33 | 40.5 ± 26 | 50.1 ± 26 | 40.6 ± 29
4 | CCCCCCC(=O)OC [Methyl heptanoate] |  | 48.9 ± 33 |  | 58.8 ± 25 |  | 52.9 ± 30 | 39.5 ± 30 | 53 ± 24 | 21.7 ± 28
5 | C=C(C)C(=O)OC [Methyl methacrylate] |  | 45.7 ± 28 |  | 39.3 ± 25 |  | 55 ± 33 | 37 ± 26 | 47.4 ± 26 | 15.1 ± 22
6 | COC(=O)c1cccnc1 [Methyl nicotinate] | 37.2 ± 30 | 43.5 ± 30 | 38.4 ± 29 | 38.3 ± 24 | 71.6 ± 28 | 63 ± 26 |  |  | 
7 | CCCCCCCCC(=O)OC [Methyl nonanoate] |  | 50.8 ± 30 |  | 57.8 ± 26 |  | 57 ± 28 | 45.9 ± 30 | 57.9 ± 24 | 28.8 ± 30
8 | COC(=O)Cc1ccccc1 [Methyl phenylacetate] |  | 54 ± 30 |  | 42.9 ± 30 |  | 69.1 ± 25 | 49.6 ± 30 | 42.3 ± 28 | 58.1 ± 30
9 | CS(C)(=O)=O [Methyl sulfone] | 51.6 ± 29 | 39.4 ± 28 | 61.1 ± 24 | 47.6 ± 20 | 42.4 ± 32 | 22.7 ± 25 |  |  | 
10 | C[S+](C)[O-] [Methyl sulfoxide] | 41.7 ± 33 | 41.6 ± 29 | 36.7 ± 24 | 32.1 ± 26 | 50.7 ± 30 | 35.3 ± 31 |  |  | 
11 | CCCC(=O)SC [Methyl thiobutyrate] |  | 50.2 ± 36 |  | 4.96 ± 12 |  | 92.4 ± 14 | 45.1 ± 32 | 16.2 ± 22 | 69.8 ± 26
12 | CCCCCC/C=C/C(=O)OC [Methyl trans-2-nonenoate] |  | 53.4 ± 27 |  | 50.3 ± 27 |  | 49.1 ± 27 | 37.1 ± 26 | 56.4 ± 17 | 20.3 ± 22
13 | CCCCC(=O)OC [Methyl valerate] |  | 55.1 ± 31 |  | 42.4 ± 31 |  | 65.2 ± 26 | 46.1 ± 28 | 48.8 ± 28 | 49.4 ± 30
14 | CC1CCC(=O)C1=O (configuration not stated) [Methylcyclopentenolone] | 63 ± 33 | 52.5 ± 34 | 35.8 ± 32 | 44.6 ± 30 | 84.7 ± 18 | 72 ± 26 |  |  | 
15 | CCCCCCCC(=O)OCCCCC [N-Amyl octanoate] |  | 42.3 ± 27 |  | 48.4 ± 23 |  | 37.1 ± 26 | 25.1 ± 28 | 58.8 ± 24 | 19.5 ± 28
16 | CC(C)=CCC/C(C)=C\CO [Nerol] |  | 60.3 ± 30 |  | 61.4 ± 24 |  | 71.1 ± 22 | 39.8 ± 33 | 48.8 ± 28 | 24.3 ± 27
17 | COc1ccc2ccccc2c1 [Nerolin Yara Yara] | 59.7 ± 28 | 58 ± 26 | 54.3 ± 29 | 61.6 ± 26 | 82.7 ± 15 | 71.5 ± 22 |  |  | 
18 | CC(=O)OC/C=C(/C)CCC=C(C)C [Neryl acetate] | 49.1 ± 28 | 35.6 ± 28 | 49.9 ± 26 | 43 ± 18 | 67.2 ± 26 | 14.7 ± 20 |  |  | 
19 | CCCCCCCCCOC(C)=O [Nonyl acetate] | 46.8 ± 29 | 39 ± 30 | 34.1 ± 27 | 39.9 ± 19 | 77.8 ± 18 | 37.1 ± 28 |  |  | 
20 | CC(=O)OCCC1=CCC2CC1C2(C)C (configuration not stated) [Nopol acetate] |  | 54.9 ± 30 |  | 70.6 ± 21 |  | 53.6 ± 29 | 52.7 ± 31 | 66.6 ± 25 | 40.7 ± 28
21 | CCCCCCCC [Octane] | 46.3 ± 29 | 27.3 ± 26 | 53.2 ± 25 | 44.1 ± 25 | 59.6 ± 31 | 13.9 ± 20 |  |  | 
22 | CCCCCCCC(=O)O [Octanoic acid] |  | 52.1 ± 33 |  | 26.6 ± 19 |  | 68.6 ± 26 | 45.3 ± 32 | 35.2 ± 20 | 49.5 ± 33
23 | CCCCCCCCOC(=O)C(C)C [Octyl isobutyrate] |  | 38.9 ± 27 |  | 55.8 ± 21 |  | 29.9 ± 26 | 36 ± 31 | 53.4 ± 20 | 17.7 ± 20
24 | CCCCCCCCOC(=O)CC(C)C [Octyl isovalerate] |  | 35.1 ± 30 |  | 39.4 ± 22 |  | 28.9 ± 33 | 38.3 ± 33 | 54.1 ± 21 | 23.4 ± 28
25 | O=C1CCCCCCCCCCCCCCO1 [Omega-Pentadecalactone] | 58.9 ± 28 | 32 ± 24 | 73.5 ± 19 | 54.1 ± 23 | 57 ± 27 | 23 ± 29 |  |  | 
26 | O=C(OCCc1ccccc1)c1ccco1 [Phenethyl 2-furoate] |  | 52.4 ± 37 |  | 58.7 ± 25 |  | 44.8 ± 31 | 40.5 ± 34 | 50.6 ± 24 | 24.1 ± 30
27 | CC(=O)OCCc1ccccc1 [Phenethyl acetate] |  | 59.1 ± 32 |  | 54.9 ± 28 |  | 62.1 ± 28 | 52.2 ± 34 | 56.9 ± 24 | 38.2 ± 32
